Where two headings read alike, the source gives them in different places.
Biological target: T1, BRD9 (Homo sapiens, UniProt Q9H8M2)
T1 sequence (Q9H8M2 1-597): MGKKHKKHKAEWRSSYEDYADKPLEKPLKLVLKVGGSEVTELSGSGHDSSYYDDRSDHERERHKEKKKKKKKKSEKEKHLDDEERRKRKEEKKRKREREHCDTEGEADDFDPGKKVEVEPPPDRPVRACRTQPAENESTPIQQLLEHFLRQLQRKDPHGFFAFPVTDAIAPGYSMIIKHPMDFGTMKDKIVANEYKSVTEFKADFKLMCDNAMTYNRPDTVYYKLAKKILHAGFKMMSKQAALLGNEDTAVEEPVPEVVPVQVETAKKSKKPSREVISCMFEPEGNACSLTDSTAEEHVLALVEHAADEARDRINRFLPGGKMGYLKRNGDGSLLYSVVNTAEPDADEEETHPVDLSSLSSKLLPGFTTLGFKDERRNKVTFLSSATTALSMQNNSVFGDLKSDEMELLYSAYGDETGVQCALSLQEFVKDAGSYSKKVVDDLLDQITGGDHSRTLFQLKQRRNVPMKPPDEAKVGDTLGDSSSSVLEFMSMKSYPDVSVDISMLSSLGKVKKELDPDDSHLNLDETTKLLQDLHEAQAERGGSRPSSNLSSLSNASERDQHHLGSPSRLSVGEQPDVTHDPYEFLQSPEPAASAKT
Experiment: Degradation of BRD9 (IF), immunofluorescence in MV4-11 cells, 24 hours (Assay Protocol 2)
Assay type: cell-based
Set-up: A suspension of MV4-11 cells (ATCC CRL-9591) was prepared; host or cells: MV4-11
Settings: BRD9 degradation
Protocol: Assay Protocol 2—Degradation of BRD9 (IF)
A suspension of MV4-11 cells (ATCC CRL-9591) was prepared in phenol red-free assay media (IMDM Thermo Scientific 21056023+10% FBS ATCC 302025) and cells were seeded at 20,000 cells per well (45 μL) in sterile black poly-d-lysine coated 384 well plates (Greiner 781948). Compounds were prepared at 1000× final concentration in DMSO, diluted 1:100 in assay media, and 5 μL compound was added to each well of the cell plate. Cells were incubated for 24 hours at 37° C. with 5% CO2. All the following incubations for immunofluorescence staining were at room temperature. 15 μL of 16% PFA was added to each well (3.7% final concentration) and the cells were fixed for 15 min then washed twice with DPBS. Cells were permeabilised with 0.1% Triton X-100 for 10 min, Triton X-100 was removed, then blocked with 1% BSA in DPBS for 1 hour. Cells were stained with 25 μL anti-BRD9 E4Q3F antibody (CST 48306) diluted 1:25600 in 1% BSA in DPBS for 2-3 hours. Wels were washed twice with DPBS then incubated with 25 μL of 1% BSA containing a 1:1000 dilution of Anti-rabbit Alexa Fluor™ 647 secondary antibody (Thero Scientific A21244) and 1 μg/mL Hoechst nuclear counter stain (Abcam ab228551) for 1 hour. Wells were washed twice with DPBS prior to imaging on a Perkin Elmer Operetta CLS with 10× air lens. Images were processed using Harmony High-Content Imaging and Analysis Software (Perkin Elmer) and the mean contrast ratio of Alexa Fluor™ 647 in central nuclei was used to quantify BRD9 protein levels. Data was further analysed using Dotmatics software and % BRD9 remaining was calculated by normalisation to average data from high and low control wells (cells treated with DMSO or 100 nM CFT-8634 respectively).

[1] = Assay protocol 2, read-out: DC50
[2] = MV4-11, Assay protocol 2, read-out: Dmax

DC50 [1] [nM]	Dmax [2] [%]	Compound	Dmax (MV4-11, Table 4, determined according to Assay Protocol 2, read-out: Dmax^2) [%]	DC50 (Table 4, determined according to Assay Protocol 2, read-out: DC50^2) [nM]
–	–	COc1cc(-c2cn(C)c(=O)c(C)c2C)cc(OC)c1CN1C2CC1CN(C(=O)/C(C#N)=C/c1cc(C)on1)C2 (mixture of isomers) [BRD9y, (E/Z)-2-(6-(2,6-dimethoxy-4-(1,4,5-trimethyl-6-oxo-1,6-dihydropyridin-3-yl)benzyl)-3,6-diazabicyclo[3.1.1]heptane-3-carbonyl)-3-(5-methylisoxazol-3-yl)acrylonitrile]	30 to 50	< 25
1.25 to 10	> 75	COc1cc(-c2cn(C)c(=O)c(C)c2C)cc(OC)c1CN1CCC(Oc2cccc(C3CCCN3C(=O)/C(C#N)=C/C(C)(C)C)c2)CC1 (mixture of isomers) [Compound B48, (E/Z)-2-(2-(3-((1-(2,6-dimethoxy-4-(1,4,5-trimethyl-6-oxo-1,6-dihydropyridin-3-yl)benzyl)piperidin-4-yl)oxy)phenyl)pyrrolidine-1-carbonyl)-4,4-dimethylpent-2-enenitrile]	–	–
1.25 to 10	> 75	COc1cc(-c2cn(C)c(=O)c(C)c2C)cc(OC)c1CN1CCN(Cc2cccc3c2CCN(C(=O)/C(C#N)=C/c2cccc(Br)n2)C3C)CC12CC2 (mixture of isomers) [Compound B61, (E/Z)-3-(6-bromopyridin-2-yl)-2-(5-((4-(2,6-dimethoxy-4-(1,4,5-trimethyl-6-oxo-1,6-dihydropyridin-3-yl)benzyl)-4,7-diazaspiro[2.5]octan-7-yl)methyl)-1-methyl-1,2,3,4-tetrahydroisoquinoline-2-carbonyl)acrylonitrile]	–	–
1.25 to 10	> 75	COc1cc(-c2cn(C)c(=O)c(C)c2C)cc(OC)c1CN1CC(Oc2cccc(C3CCCN3C(=O)/C(C#N)=C/C(C)(C)C)c2)C1 (mixture of isomers) [Compound B62, (E/Z)-2-(2-(3-((1-(2,6-dimethoxy-4-(1,4,5-trimethyl-6-oxo-1,6-dihydropyridin-3-yl)benzyl)azetidin-3-yl)oxy)phenyl)pyrrolidine-1-carbonyl)-4,4-dimethylpent-2-enenitrile]	–	–
< 1.25	> 75	COc1cc(-c2cn(C)c(=O)c(C)c2C)cc(OC)c1CN1CCC(Oc2cccc3c2CCN(C(=O)/C(C#N)=C/c2ccc(C(F)(F)F)cn2)C3C)CC1 (mixture of isomers) [Compound B64, (E/Z)-2-(5-((1-(2,6-dimethoxy-4-(1,4,5-trimethyl-6-oxo-1,6-dihydropyridin-3-yl)benzyl)piperidin-4-yl)oxy)-1-methyl-1,2,3,4-tetrahydroisoquinoline-2-carbonyl)-3-(5-(trifluoromethyl)pyridin-2-yl)acrylonitrile]	–	–
1.25 to 10	> 75	COc1cc(-c2cn(C)c(=O)c(C)c2C)cc(OC)c1C(=O)N1CCCN(Cc2cccc3c2CCN(C(=O)/C(C#N)=C/C(C)(C)C)C3C)CC1 (mixture of isomers) [Compound B65, (E/Z)-2-(5-((4-(2,6-dimethoxy-4-(1,4,5-trimethyl-6-oxo-1,6-dihydropyridin-3-yl)benzoyl)-1,4-diazepan-1-yl)methyl)-1-methyl-1,2,3,4-tetrahydroisoquinoline-2-carbonyl)-4,4-dimethylpent-2-enenitrile]	–	–
1.25 to 10	> 75	COc1cc(-c2cn(C)c(=O)c(C)c2C)cc(OC)c1CN1CC[C@H](Oc2cccc(C3CCCN3C(=O)/C(C#N)=C/C(C)(C)C)c2)C1 (mixture of isomers) [Compound B67, (E/Z)-2-(2-(3-(((S)-1-(2,6-dimethoxy-4-(1,4,5-trimethyl-6-oxo-1,6-dihydropyridin-3-yl)benzyl)417yrrolidine-3-yl)oxy)phenyl)pyrrolidine-1-carbonyl)-4,4-dimethylpent-2-enenitrile]	–	–
< 1.25	> 75	COc1cc(-c2cn(C)c(=O)c(C)c2C)cc(OC)c1CN1CCCN(Cc2cccc3c2CCN(C(=O)/C(C#N)=C/c2cccc(C(F)(F)F)n2)C3C)CC1 (mixture of isomers) [Compound B68, (E/Z)-2-(5-((4-(2,6-dimethoxy-4-(1,4,5-trimethyl-6-oxo-1,6-dihydropyridin-3-yl)benzyl)-1,4-diazepan-1-yl)methyl)-1-methyl-1,2,3,4-tetrahydroisoquinoline-2-carbonyl)-3-(6-(trifluoromethyl)pyridin-2-yl)acrylonitrile]	–	–
1.25 to 10	40 to 70	COc1cc(-c2cn(C)c(=O)c(C)c2C)cc(OC)c1CN1CCN(Cc2cccc3c2CCN(C(=O)/C(C#N)=C/C2CCOCC2)C3C)CC1 (mixture of isomers) [Compound B69, (E/Z)-2-(5-((4-(2,6-dimethoxy-4-(1,4,5-trimethyl-6-oxo-1,6-dihydropyridin-3-yl)benzyl)piperazin-1-yl)methyl)-1-methyl-1,2,3,4-tetrahydroisoquinoline-2-carbonyl)-3-(tetrahydro-2H-pyran-4-yl)acrylonitrile]	–	–
–	40 to 70	COc1cc(-c2cn(C)c(=O)c(C)c2C)cc(OC)c1CN1CCN(Cc2cccc3c2CCN(C(=O)/C(C#N)=C/c2cccnc2OC)C3C)CC1 (mixture of isomers) [Compound B70, (E/Z)-2-(5-((4-(2,6-dimethoxy-4-(1,4,5-trimethyl-6-oxo-1,6-dihydropyridin-3-yl)benzyl)piperazin-1-yl)methyl)-1-methyl-1,2,3,4-tetrahydroisoquinoline-2-carbonyl)-3-(2-methoxypyridin-3-yl)acrylonitrile]	–	–
1.25 to 10	40 to 70	COc1ccc(/C=C(\C#N)C(=O)N2CCc3c(CN4CCN(Cc5c(OC)cc(-c6cn(C)c(=O)c(C)c6C)cc5OC)CC4)cccc3C2C)cn1 (mixture of isomers) [Compound B71, (E/Z)-2-(5-((4-(2,6-dimethoxy-4-(1,4,5-trimethyl-6-ox0-1,6-dihydropyridin-3-yl)benzyl)piperazin-1-yl)methyl)-1-methyl-1,2,3,4-tetrahydroisoquinoline-2-carbonyl)-3-(6-methoxypyridin-3-yl)acrylonitrile]	–	–
1.25 to 10	40 to 70	COc1cc(-c2cn(C)c(=O)c(C)c2C)cc(OC)c1CN1CCN(Cc2cccc3c2CCN(C(=O)/C(C#N)=C/C2CCC(F)(F)CC2)C3C)CC1 (mixture of isomers) [Compound B72, (E/Z)-3-(4,4-difluorocyclohexyl)-2-(5-((4-(2,6-dimethoxy-4-(1,4,5-trimethyl-6-oxo-1,6-dihydropyridin-3-yl)benzyl)piperazin-1-yl)methyl)-1-methyl-1,2,3,4-tetrahydroisoquinoline-2-carbonyl)acrylonitrile]	–	–
25 to 1000	40 to 70	COc1cc(-c2cn(C)c(=O)c(C)c2C)cc(OC)c1CN1CCN(Cc2cccc3c2CCN(C(=O)/C(C#N)=C/C2CCCCC2)C3C)CC1 (mixture of isomers) [Compound B73, (E/Z)-3-cyclohexyl-2-(5-((4-(2,6-dimethoxy-4-(1,4,5-trimethyl-6-oxo-1,6-dihydropyridin-3-yl)benzyl)piperazin-1-yl)methyl)-1-methyl-1,2,3,4-tetrahydroisoquinoline-2-carbonyl)acrylonitrile]	–	–
< 1.25	40 to 70	COc1cc(-c2cn(C)c(=O)c(C)c2C)cc(OC)c1CN1CCN(Cc2cccc3c2CCN(C(=O)/C(C#N)=C/c2cccc(C#N)c2)C3C)CC1 (mixture of isomers) [Compound B74, (E/Z)-3-(2-cyano-3-(5-((4-(2,6-dimethoxy-4-(1,4,5-trimethyl-6-oxo-1,6-dihydropyridin-3-yl)benzyl)piperazin-1-yl)methyl)-1-methyl-3,4-dihydroisoquinolin-2(1H)-yl)-3-oxoprop-1-en-1-yl) benzonitrile]	–	–
